Results published in US3966850A, “O-ethyl-S-n-propyl-O-(2-bromo-4-cyanophenyl)-thionothiol-phosphoric acid ester” (priority 1973, dated 1976).

What was measured:
[1] = system: insects; conditions: known from U.S. Pat. No. 3,607,991; cited from earlier work
[2] = system: insects and mites (Acarina); assay: Insecticidal and acaricidal activity (statement in words); assay type: in vivo; conditions: sucking and biting insects and mites (Acarina)
[3] = system: warm-blooded animals; assay: Toxicity to warm-blooded animals (statement in words); assay type: in vivo; conditions: as compared to prior art compounds of analogous structure and same type of action
[4] = Toxicity test/peroral (LD50, evaluation after 7 days); conditions: rat, in vivo, po
Text: Test animal: Albino rat (Rattus norvegicus)
Dosing was effected volumetrically after weighing the test animals. A steel knob-ended probe was used for oral administration.

| Structure (SMILES) | insecticidal activity [1] | insecticidal and acaricidal activity [2] | toxicity to warm-blooded animals [3] | LD50 at 168 h [4] [mg/kg] |
| --- | --- | --- | --- | --- |
| CCOP(=S)(OCC)Oc1ccc(C#N)cc1 [Compound A, O,O-diethyl-O-(4-cyanophenyl)-thionophosphoric acid ester] | possess insecticidal activity |  |  |  |
| CCCSP(=S)(OCC)Oc1ccc(C#N)cc1Br (stereo not shown) [I, O-ethyl-S-n-propyl-O-(2-bromo-4-cyanophenyl)-thionothiol-phosphoric acid ester] |  | good insecticidal and acaricidal activity | very low toxicity | 100 to 250 |
